Reference: article PMC8230281, “Improving the Pharmacological Properties of Ciclopirox for Its Use in Congenital Erythropoietic Porphyria” (Journal of Personalized Medicine, 2021)

Assays:
[1] = set-up: method as in PMID 7197542; conditions: oral; 1 mg/kg rats, 10-15 mg/kg dogs; cited from earlier work
[2] = set-up: method as in PMID 7028047; conditions: rats; 4 weeks; doses up to 300 mg/kg; cited from earlier work
[3] = Serum CPX pharmacokinetics in mice after single IV or oral dose, quantified by NMR; assay type: in vivo
Procedure: (§1) The compound ciclopirox (CPX, 6-cyclohexyl-1-hydroxy-4-methyl-2(1H)-pyridinone) was purchased from Santa Cruz Biotechnology (sc-204688), and phosphorylated ciclopirox (CPXpom, O-phosphoryl-methylen-6-cyclohexyl-1-hydroxy-4-metyl-2(1H)-Pyridinone) was synthetized by Charnwood Molecular Ltd. PD of CPX was studied in HEK CRISPR Cas UROIIIS-C73R and UROIIIS-P248Q cell lines. Briefly, 60 µM dose of CPX and phosphorylated CPX was administrated for 30 min and 1, 2, and 4 h of exposition. Then, the cells were counted and harvested. Samples were treated by the same protocol for the porphyrin extraction. Mouse experiments. For the PK experiments and for each bolus administration method 10 WT ICR (CD-1®) outbred mice (Envigo) were used. Serum was collected after the administration at 1, 2, 4, 6 (7), 12, and 24 h. At 48 (36) h, the mice were sacrificed. Triplicates were collected for each data point. […] In the PD experiments, the concentration of porphyrins was measured from circulating blood. […]
NMR data were collected at on an 800-MHz Bruker Avance III spectrometer equipped with a cryoprobe and on a 600-MHz Bruker Avance III US2 spectrometer. […] Metabolic quantification was carried out at peaks’ integral against the added internal reference compound. […]
Non-compartmental serum and urine pharmacokinetic parameters for CPXpom and CPX were determined using SimBiology module in MATLAB. […]

[4] = GI toxicity in WT mice after administration of CPX or CPXpom; assay type: in vivo; conditions: for macroscopic inflammation of the gut: mice, Figure 1; for GI toxicity: 100 mg/kg
[5] = system: HEK CRISPR Cas UROIIIS-C73R cell line; experiment: URO I levels in HEK CRISPR/Cas9 cellular model of CEP (UROIIIS-C73R), HPLC; assay type: cell-based; conditions: UROIIIS^C73R HEK cells; 60 µM; 30 min to 4 h
Procedure: as §1, with “used.” for “used. Serum was collected after the administration at 1, 2, 4, 6 (7), 12, and 24 h. At 48 (36) h, the mice were sacrificed. Triplicates were collected for each data point.”
(§2) Murine blood samples were obtained from the submandibular vein and collected in ethylenediaminetetraacetic acid tubes; samples were aliquoted and stored in a freezer at −80 °C. […] The samples were then analyzed by HPLC.
(§3) Porphyrins from cell lines were separated by HPLC analysis on a ODS Hypersil C18 column (5 µm, 3 mm × 200 mm; Thermo Scientific, Waltham, MA, US) in a HPLC chromatograph (Shimadzu, Long Beach, CA, US). […] All analyses were performed at 20 °C, and porphyrins were detected by fluorescence with an excitation wavelength 405 nm and emission wavelength 610 nm. […]

[6] = system: HEK CRISPR Cas UROIIIS-P248Q cell line; experiment: URO I levels in HEK CRISPR/Cas9 cellular model of CEP (UROIIIS-P248Q), HPLC; assay type: cell-based; conditions: UROIIIS^P248Q HEK cells; 60 µM
Procedure: as §1, with “used.” for “used. Serum was collected after the administration at 1, 2, 4, 6 (7), 12, and 24 h. At 48 (36) h, the mice were sacrificed. Triplicates were collected for each data point.”
as §2, §3

[7] = system: mouse model of the disease (UROIIIS^P248Q/P248Q); experiment: Oral gavage for 30 days in mouse model of CEP; assay type: in vivo; conditions: UROIIIS^P248Q/P248Q mice; for reduction in total UROI levels in serum: oral gavage, after 30 days, equivalent dose
Procedure: The compound ciclopirox (CPX, 6-cyclohexyl-1-hydroxy-4-methyl-2(1H)-pyridinone) was purchased from Santa Cruz Biotechnology (sc-204688), and phosphorylated ciclopirox (CPXpom, O-phosphoryl-methylen-6-cyclohexyl-1-hydroxy-4-metyl-2(1H)-Pyridinone) was synthetized by Charnwood Molecular Ltd. PD of CPX was studied in HEK CRISPR Cas UROIIIS-C73R and UROIIIS-P248Q cell lines. Briefly, 60 µM dose of CPX and phosphorylated CPX was administrated for 30 min and 1, 2, and 4 h of exposition. Then, the cells were counted and harvested. Samples were treated by the same protocol for the porphyrin extraction. Mouse experiments. For the PK experiments and for each bolus administration method 10 WT ICR (CD-1®) outbred mice (Envigo) were used. Serum was collected after the administration at 1, 2, 4, 6 (7), 12, and 24 h. At 48 (36) h, the mice were sacrificed. Triplicates were collected for each data point. Urine samples were collected at the same interval. In the PD experiments, the concentration of porphyrins was measured from circulating blood. Blood samples were extracted from the submandibular vein every week, and mice were weighed before each extraction. Mice were treated with oral CPX by gavage to evaluate CPX dose efficiency. […] All work performed with animals was approved by the competent authority (Diputación Foral de Bizkaia) following European and Spanish directives. The CIC bioGUNE Animal Facility is accredited by AAALAC Intl.
as §2, §3

[8] = system: murine models of CEP; set-up: method as in PMID 30232228; conditions: cited from earlier work
[9] = set-up: method as in PMID 2989308; conditions: weak acidic N-hydroxyl group of the 1-hydroxy-2(1H)-pyridones; cited from earlier work
[10] = system: cellular models of the disease, obtained from HEK cells by CRISPR/Cas9 editing; experiment: Equivalent cellular studies in cellular models of CEP (data not shown); assay type: cell-based
Excerpt: We first tested the derivatives on different cellular models of the disease, obtained from HEK cells by CRISPR/Cas9 editing. The selected mutations (UROIIIS^C73R and UROIIIS^P248Q) result in destabilized proteins and severe phenotypes. […] Thus, the reported activity for CPXpom is attributed to a proper hydrolysis of the compound into the active species.

For `Cc1cc(C2CCCCC2)n(O)c(=O)c1` [ciclopirox-olamine], the “elimination in urine (time)” value [1] is given as 3 to 6 h and the gastric findings [2] is given as “gastric irritation and chronic gastritis”.
In the case of `Cc1cc(C2CCCCC2)n(O)c(=O)c1` [CPX, 6-cyclohexyl-1-hydroxy-4-methyl-2(1H)-pyridinone], the CPXFREE ([3]; Table S3, serum, IV, dose 10 mg/kg, CPXfree = CPXtot − CPXglu) is reported as less than 21.4%, the “macroscopic inflammation of the gut” value [4] is reported as “Macroscopic inflammation can be observed” and the GI toxicity ([4]; mouse, in vivo, po) is reported as “results in GI toxicity”. For the same compound, the “levels of the toxic by-product URO I” value [5] was “significantly reduced”, the “levels of the toxic by-product URO I” value [6] was “significantly reduced” and the “reduction in total UROI levels in serum” value [7] was 40%. The splenomegaly ([8]; indirect measure of reduction in circulating porphyrins) was “reduced splenomegaly”, the “levels of the toxic porphyrins, particularly URO I and COPRO I” value ([8]; liver, red blood cells, and urine) was “significant decrease” and the pK [9] was 7.
For `NC(Cn1ccc(=O)c(O)c1)C(=O)O` (stereo not shown) [mimosine], the “activity in cellular models of CEP” value [10] was “no activity”.
In the case of `Cc1cc(C2CCCCC2)n(OCOP(=O)(O)O)c(=O)c1` [CPXpom, O-phosphoryl-methylen-6-cyclohexyl-1-hydroxy-4-metyl-2(1H)-Pyridinone], the “circulating concentration of CPXpom (NMR spectrum of serum)” value ([3]; after CPXpom administration) is reported as “below the detection limit”, the GI toxicity ([4]; WT mice, oral (gavage)) is reported as “does not result in GI toxicity” and the “macroscopic inflammation of the gut” value [4] is reported as “no macroscopic inflammation”. For the same compound, the “levels of the toxic by-product URO I” value [5] was “significantly reduced”, the “levels of the toxic by-product URO I” value [6] was “significantly reduced” and the “reduction in total UROI levels in serum” value [7] was 5%. The GI toxicity ([7]; orally by gavage for 30 days) was “no GI toxicity was observed”.
